One assay addresses human α9α10 nAChR (Homo sapiens, UniProt Q9GZZ6+Q9UGM1). The assay can be described thus: cell-based. It is filed as cell-based.
For the next assay, the target named is rat α9α10 nAChR (Rattus norvegicus, UniProt P43144+Q9JLB5). In words: cell-based. It is filed as cell-based. Conditions: α9α10 nAChR IC50 (nM) Rat.

The structures appear in SMILES notation. Numbered stars: 1 amine (or outer) side, 2 acyl side, 3 side chain; on linkers, the order of the positions; unused ones are H or OH. Bridge positions count the residues as written; N and C are the ends. Square brackets hold non-standard residues; d marks the D form. Triazole bridges read from a SMILES are 1,4-linked. Peptide text beside a SMILES is read from it. Gly(αS-SH) = O=C([C@@H](N[*:1])S[*:3])[*:2]; Tyr(3-I) = N[C@@H](Cc1ccc(O)c(I)c1)C(=O)O; Orn(N3) = [N-]=[N+]=NCCC[C@H](N)C(=O)O; Dap(N3) = [N-]=[N+]=NC[C@H](N)C(=O)O; Aha = [N-]=[N+]=NCC[C@H](N)C(=O)O; Cit = NC(=O)NCCC[C@H](N)C(=O)O; Hpra = C#CCC[C@H](N)C(=O)O; Pra = C#CC[C@H](N)C(=O)O Bounds are passed on as bounds.

human α9α10 nAChR, sequence (Q9UGM1 26-479 limits assumed): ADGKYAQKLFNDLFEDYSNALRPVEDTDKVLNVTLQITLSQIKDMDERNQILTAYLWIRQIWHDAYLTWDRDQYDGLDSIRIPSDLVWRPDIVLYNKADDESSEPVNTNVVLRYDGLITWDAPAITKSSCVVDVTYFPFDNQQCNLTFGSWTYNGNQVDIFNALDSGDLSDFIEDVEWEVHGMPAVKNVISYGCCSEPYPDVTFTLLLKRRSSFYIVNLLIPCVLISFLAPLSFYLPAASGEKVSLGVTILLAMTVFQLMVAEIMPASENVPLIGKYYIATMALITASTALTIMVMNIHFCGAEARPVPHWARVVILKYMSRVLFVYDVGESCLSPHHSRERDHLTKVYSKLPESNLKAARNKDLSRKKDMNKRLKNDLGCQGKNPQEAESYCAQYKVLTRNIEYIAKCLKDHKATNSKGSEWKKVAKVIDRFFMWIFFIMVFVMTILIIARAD
human α9α10 nAChR, sequence (Q9GZZ6 25-450 limits assumed): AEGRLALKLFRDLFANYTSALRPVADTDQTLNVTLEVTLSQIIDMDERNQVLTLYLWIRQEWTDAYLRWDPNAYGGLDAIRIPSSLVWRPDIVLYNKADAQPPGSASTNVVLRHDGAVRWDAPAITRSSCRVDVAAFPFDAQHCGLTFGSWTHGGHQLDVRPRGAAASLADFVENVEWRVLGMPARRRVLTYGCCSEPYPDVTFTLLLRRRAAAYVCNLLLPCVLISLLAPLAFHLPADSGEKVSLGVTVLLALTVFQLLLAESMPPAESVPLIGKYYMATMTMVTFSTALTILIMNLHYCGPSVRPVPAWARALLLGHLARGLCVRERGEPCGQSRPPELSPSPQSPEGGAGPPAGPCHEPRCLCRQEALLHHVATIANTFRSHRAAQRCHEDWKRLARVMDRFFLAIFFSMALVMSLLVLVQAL
rat α9α10 nAChR, sequence (P43144 26-479 limits assumed): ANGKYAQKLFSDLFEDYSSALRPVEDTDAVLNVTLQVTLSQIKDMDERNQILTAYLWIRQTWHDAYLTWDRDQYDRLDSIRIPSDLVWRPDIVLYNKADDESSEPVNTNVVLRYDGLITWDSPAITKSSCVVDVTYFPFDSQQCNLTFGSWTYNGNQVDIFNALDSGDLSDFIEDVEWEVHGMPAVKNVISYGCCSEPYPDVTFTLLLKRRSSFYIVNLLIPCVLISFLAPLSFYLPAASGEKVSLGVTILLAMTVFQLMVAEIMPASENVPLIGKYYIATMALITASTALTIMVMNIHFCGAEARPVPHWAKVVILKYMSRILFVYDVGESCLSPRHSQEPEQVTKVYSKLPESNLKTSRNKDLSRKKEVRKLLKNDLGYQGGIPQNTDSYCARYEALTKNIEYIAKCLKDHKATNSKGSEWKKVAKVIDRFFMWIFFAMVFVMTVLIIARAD
rat α9α10 nAChR, sequence (Q9JLB5 25-447 limits assumed): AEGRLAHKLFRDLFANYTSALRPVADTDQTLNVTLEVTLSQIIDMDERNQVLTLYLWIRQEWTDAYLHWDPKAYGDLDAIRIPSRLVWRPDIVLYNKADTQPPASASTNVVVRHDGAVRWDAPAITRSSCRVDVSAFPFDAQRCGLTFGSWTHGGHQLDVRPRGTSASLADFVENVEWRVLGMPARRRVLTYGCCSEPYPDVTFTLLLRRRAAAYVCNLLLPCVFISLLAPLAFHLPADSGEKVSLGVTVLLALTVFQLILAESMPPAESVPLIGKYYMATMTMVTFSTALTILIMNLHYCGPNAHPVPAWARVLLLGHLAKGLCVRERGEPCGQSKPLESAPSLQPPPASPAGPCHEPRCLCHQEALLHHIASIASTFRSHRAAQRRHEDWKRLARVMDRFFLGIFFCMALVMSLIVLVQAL

The IC50 is the concentration that gives 50% inhibition. Low values mean greater potency, high ones weaker potency. For the compound `C[C@@H](O)[C@@H]1NC(=O)[C@@H]2Cc3cn(nn3)CCC[C@@H](C(=O)N[C@@H](Cc3ccc(O)cc3)C(=O)O)NC(=O)[C@H](CCC(N)=O)NC(=O)[C@H](Cc3ccc(O)c(I)c3)NC(=O)[C@H](CCCNC(N)=O)NC(=O)[C@H](CSSC[C@H](NC(=O)CN)C(=O)N2)NC(=O)[C@H](CCCNC(=N)N)NC(=O)[C@@H]2CCCN2C(=O)[C@H](CC(=O)O)NC1=O` [Ib, L-tyrosine, glycyl-L-cysteinyl-L-alanyl-L-threonyl-L-α-aspartyl-L-prolyl-L-arginyl-L-cysteinyl-N5-(aminocarbonyl)-L-ornithyl-L-3-iodotyrosyl-L-glutaminyl-L-norvalyl-cyclic (2→8)-disulfide-cyclic 3^3,12^5-(1H-1,2,3-triazole-4,1-diyl)] (H-GC[Pra]TDPRC[Cit][Tyr(3-I)]Q[Orn(N3)]Y-OH; disulfide 2-8; triazole 3-12), the figures for the IC50 against human α9α10 nAChR and on rat α9α10 nAChR were 37 ± 1.3 nM and 7 nM, respectively.

In the case of `C[C@@H](O)[C@@H]1NC(=O)[C@H]2NC(=O)[C@@H](NC(=O)CN)Cc3cn(nn3)CCC[C@H](NC(=O)[C@H](CCCNC(=N)N)NC(=O)[C@@H]3CCCN3C(=O)[C@H](CC(=O)O)NC1=O)C(=O)N[C@@H](CCCNC(N)=O)C(=O)N[C@@H](Cc1ccc(O)c(I)c1)C(=O)N[C@@H](CCC(N)=O)C(=O)N[C@H](C(=O)N[C@@H](Cc1ccc(O)cc1)C(N)=O)CSS2` [Ic, L-tyrosinamide, glycyl-L-alanyl-L-cysteinyl-L-threonyl-L-α-aspartyl-L-prolyl-L-arginyl-L-norvalyl-N5-(aminocarbonyl)-L-ornithyl-L-3-iodotyrosyl-L-glutaminyl-L-cysteinyl-cyclic 2^3,8^5-(1H-1,2,3-triazole-4,1-diyl)-cyclic-(3→12)-disulfide] (H-G[Pra][Gly(αS-SH)]TDPR[Orn(N3)][Cit][Tyr(3-I)]QCY-NH2; triazole 2-8; disulfide 3-12), the results for the IC50 at human α9α10 nAChR and against rat α9α10 nAChR were 152 ± 71 nM and 69 ± 8.5 nM, respectively.

For the compound `C[C@@H](O)[C@@H]1NC(=O)[C@H]2NC(=O)[C@@H](NC(=O)CN)CCCn3cc(nn3)C[C@H](NC(=O)[C@H](CCCNC(=N)N)NC(=O)[C@@H]3CCCN3C(=O)[C@H](CC(=O)O)NC1=O)C(=O)N[C@@H](CCCNC(N)=O)C(=O)N[C@@H](Cc1ccc(O)c(I)c1)C(=O)N[C@@H](CCC(N)=O)C(=O)N[C@H](C(=O)N[C@@H](Cc1ccc(O)cc1)C(N)=O)CSS2` [Id, L-tyrosinamide, glycyl-L-norvalyl-L-cysteinyl-L-threonyl-L-α-aspartyl-L-prolyl-L-arginyl-L-alanyl-N5-(aminocarbonyl)-L-ornithyl-L-3-iodotyrosyl-L-glutaminyl-L-cysteinyl-cyclic 2^5,8^3-(1H-1,2,3-triazole-1,4-diyl)-cyclic-(3→12)-disulfide] (H-G[Orn(N3)][Gly(αS-SH)]TDPR[Pra][Cit][Tyr(3-I)]QCY-NH2; triazole 2-8; disulfide 3-12), the IC50 on human α9α10 nAChR and against rat α9α10 nAChR was no less than 1000 nM throughout.

`C[C@@H](O)[C@@H]1NC(=O)[C@@H]2CCCn3cc(nn3)C[C@@H](C(=O)N[C@@H](Cc3ccc(O)cc3)C(N)=O)NC(=O)[C@H](CCC(N)=O)NC(=O)[C@H](Cc3ccc(O)c(I)c3)NC(=O)[C@H](CCCNC(N)=O)NC(=O)[C@H](CSSC[C@H](NC(=O)CN)C(=O)N2)NC(=O)[C@H](CCCNC(=N)N)NC(=O)[C@@H]2CCCN2C(=O)[C@H](CC(=O)O)NC1=O` [Ie, L-tyrosinamide, glycyl-L-cysteinyl-L-norvalyl-L-threonyl-L-α-aspartyl-L-prolyl-L-arginyl-L-cysteinyl-N5-(aminocarbonyl)-L-ornithyl-L-3-iodotyrosyl-L-glutaminyl-L-alanyl-cyclic (2→8)-disulfide-cyclic 3^5,12^3-(1H-1,2,3-triazole-1,4-diyl)] (H-GC[Orn(N3)]TDPRC[Cit][Tyr(3-I)]Q[Pra]Y-NH2; disulfide 2-8; triazole 3-12): the values for the half-maximal inhibitory concentration (IC50) against human α9α10 nAChR and on rat α9α10 nAChR were 115 ± 56 nM and 6.6 ± 1.7 nM, respectively.

Turning to `C[C@@H](O)[C@@H]1NC(=O)[C@@H]2Cc3cn(nn3)C[C@@H](C(=O)N[C@@H](Cc3ccc(O)cc3)C(N)=O)NC(=O)[C@H](CCC(N)=O)NC(=O)[C@H](Cc3ccc(O)c(I)c3)NC(=O)[C@H](CCCNC(N)=O)NC(=O)[C@H](CSSC[C@H](NC(=O)CN)C(=O)N2)NC(=O)[C@H](CCCNC(=N)N)NC(=O)[C@@H]2CCCN2C(=O)[C@H](CC(=O)O)NC1=O` [If, L-tyrosinamide, glycyl-L-cysteinyl-L-alanyl-L-threonyl-L-α-aspartyl-L-prolyl-L-arginyl-L-cysteinyl-N5-(aminocarbonyl)-L-ornithyl-L-3-iodotyrosyl-L-glutaminyl-L-alanyl-cyclic (2→8)-disulfide-cyclic 3^3,12^3-(1H-1,2,3-triazole-4,1-diyl)] (H-GC[Pra]TDPRC[Cit][Tyr(3-I)]Q[Dap(N3)]Y-NH2; disulfide 2-8; triazole 3-12), the IC50 amounted to 1520 ± 116 nM against human α9α10 nAChR and 12.5 ± 8.7 nM on rat α9α10 nAChR.

With `C[C@@H](O)[C@@H]1NC(=O)[C@@H]2CCc3cn(nn3)CCC[C@@H](C(=O)N[C@@H](Cc3ccc(O)cc3)C(=O)O)NC(=O)[C@H](CCC(N)=O)NC(=O)[C@H](Cc3c[nH]c4ccccc34)NC(=O)[C@H](CCCNC(N)=O)NC(=O)[C@H](CSSC[C@H](NC(=O)CN)C(=O)N2)NC(=O)[C@H](CCCNC(=N)N)NC(=O)[C@@H]2CCCN2C(=O)[C@H](CC(=O)O)NC1=O` [Ig, L-tyrosine, glycyl-L-cysteinyl-(2S)-2-aminobutanoyl-L-threonyl-L-α-aspartyl-L-prolyl-L-arginyl-L-cysteinyl-N5-(aminocarbonyl)-L-ornithyl-L-tryptophyl-L-glutaminyl-L-norvalyl-cyclic (2→8)-disulfide-cyclic 3^4,12^5-(1H-1,2,3-triazole-4,1-diyl)] (H-GC[Hpra]TDPRC[Cit]WQ[Orn(N3)]Y-OH; disulfide 2-8; triazole 3-12), the IC50 on human α9α10 nAChR amounted to 19 nM; at rat α9α10 nAChR, 22 ± 1.1 nM.

On to `C[C@@H](O)[C@@H]1NC(=O)[C@@H]2CCc3cn(nn3)CC[C@@H](C(=O)N[C@@H](Cc3ccc(O)cc3)C(=O)O)NC(=O)[C@H](CCC(N)=O)NC(=O)[C@H](Cc3c[nH]c4ccccc34)NC(=O)[C@H](CCCNC(N)=O)NC(=O)[C@H](CSSC[C@H](NC(=O)CN)C(=O)N2)NC(=O)[C@H](CCCNC(=N)N)NC(=O)[C@@H]2CCCN2C(=O)[C@H](CC(=O)O)NC1=O` [Ih, L-tyrosine, glycyl-L-cysteinyl-(2S)-2-aminobutanoyl-L-threonyl-L-α-aspartyl-L-prolyl-L-arginyl-L-cysteinyl-N5-(aminocarbonyl)-L-ornithyl-L-tryptophyl-L-glutaminyl-L-(2S)-2-aminobutanoyl-cyclic (2→8)-disulfide-cyclic 3^4,12^4-(1H-1,2,3-triazole-4,1-diyl)] (H-GC[Hpra]TDPRC[Cit]WQ[Aha]Y-OH; disulfide 2-8; triazole 3-12), for which the IC50 stood at 8 ± 1.5 nM at human α9α10 nAChR and 8.5 ± 1.1 nM on rat α9α10 nAChR.

`C[C@@H](O)[C@@H]1NC(=O)[C@@H]2Cc3cn(nn3)CCC[C@@H](C(=O)N[C@@H](Cc3ccccc3)C(=O)O)NC(=O)[C@H](CCC(N)=O)NC(=O)[C@H](Cc3c[nH]c4ccccc34)NC(=O)[C@H](CCCNC(N)=O)NC(=O)[C@H](CSSC[C@H](NC(=O)CN)C(=O)N2)NC(=O)[C@H](CCCNC(=N)N)NC(=O)[C@@H]2CCCN2C(=O)[C@H](CC(=O)O)NC1=O` [Il, L-phenylalanine, glycyl-L-cysteinyl-L-alanyl-L-threonyl-L-α-aspartyl-L-prolyl-L-arginyl-L-cysteinyl-N5-(aminocarbonyl)-L-ornithyl-L-tryptophyl-L-glutaminyl-L-norvalyl-cyclic (2→8)-disulfide-cyclic 3^3,12^5-(1H-1,2,3-triazole-4,1-diyl)] (H-GC[Pra]TDPRC[Cit]WQ[Orn(N3)]F-OH; disulfide 2-8; triazole 3-12) came in with an IC50 at human α9α10 nAChR of 11 ± 1.4 nM.

`C[C@@H](O)[C@@H]1NC(=O)[C@@H]2Cc3cn(nn3)CCC[C@@H](C(=O)N[C@H](Cc3ccc(O)cc3)C(=O)O)NC(=O)[C@H](CCC(N)=O)NC(=O)[C@H](Cc3c[nH]c4ccccc34)NC(=O)[C@H](CCCNC(N)=O)NC(=O)[C@H](CSSC[C@H](NC(=O)CN)C(=O)N2)NC(=O)[C@H](CCCNC(=N)N)NC(=O)[C@@H]2CCCN2C(=O)[C@H](CC(=O)O)NC1=O` [Im, D-tyrosine, glycyl-L-cysteinyl-L-alanyl-L-threonyl-L-α-aspartyl-L-prolyl-L-arginyl-L-cysteinyl-N5-(aminocarbonyl)-L-ornithyl-L-tryptophyl-L-glutaminyl-L-norvalyl-cyclic (2→8)-disulfide-cyclic 3^3,12^5-(1H-1,2,3-triazole-4,1-diyl)] (H-GC[Pra]TDPRC[Cit]WQ[Orn(N3)][dY]-OH; disulfide 2-8; triazole 3-12) yielded an IC50 on human α9α10 nAChR of 50 ± 1.2 nM.

Take `C[C@@H](O)[C@@H]1NC(=O)[C@@H]2Cc3cn(nn3)CCC[C@@H](C(=O)N[C@H](CCCNC(=N)N)C(=O)O)NC(=O)[C@H](CCC(N)=O)NC(=O)[C@H](Cc3c[nH]c4ccccc34)NC(=O)[C@H](CCCNC(N)=O)NC(=O)[C@H](CSSC[C@H](NC(=O)CN)C(=O)N2)NC(=O)[C@H](CCCNC(=N)N)NC(=O)[C@@H]2CCCN2C(=O)[C@H](CC(=O)O)NC1=O` [Is, D-arginine, glycyl-L-cysteinyl-L-alanyl-L-threonyl-L-α-aspartyl-L-prolyl-L-arginyl-L-cysteinyl-N5-(aminocarbonyl)-L-ornithyl-L-tryptophyl-L-glutaminyl-L-norvalyl-cyclic (2→8)-disulfide-cyclic 3^3,12^5-(1H-1,2,3-triazole-4,1-diyl)] (H-GC[Pra]TDPRC[Cit]WQ[Orn(N3)][dR]-OH; disulfide 2-8; triazole 3-12): 59 nM corresponded to half-maximal inhibition at human α9α10 nAChR (IC50). This IC50 and that of the compound before are within 1.5-fold of each other.

The values above are taken from patent publication US11612661B2 (priority 2019, dated 2023).
